Assay results from patent publication EP3831940A1, “SMALL MOLECULE INHIBITORS OF CRISPR-CAS ASSOCIATED ACTIVITY” (Danmarks Tekniske Universitet, priority 2019, dated 2021).

Molecular target: T1, spCas9:gRNA complex (Streptococcus pyogenes serotype M1, UniProt Q99ZW2)
T1 construct: purchased New England Biolabs
Experiment: in vitro DNA cleavage assay (agarose gel)
Type: biochemical
Experimental: The in vitro DNA cleavage assay was carried out as described by (Pawluk, N et al., 2016) with the following modifications. SpyCas9 (New England Biolabs) (5nM) was incubated with candidate compound (50∼500µM) for 15 min at 37°C in Cas9 nuclease buffer (New England Biolabs). Alt-R crRNA:tracrRNA (Integrated DNA Technologies) (6nM) was added later and incubated again for 15min at 37°C. Finally, target dsDNA (1nM) was added and incubated for 10 min at 37°C for the cleavage. The reaction was stopped by adding Proteinase K. The cleaved and un-cleaved fraction of target dsDNA were visualized after separation on a 1% agarose gel.
Control assays were performed in parallel, where the candidate compound was substituted with 5µM AcrIIA2, as positive control; either 5µM GFP protein or no protein (DMSO) as negative control; and phenolic Mannich base inhibitor, ZL006 (Sigma-Aldrich). The AcrIIA2 and GFP proteins were obtained from E. coli cells transformed with the AcrIIA2- and GFP-expression plasmids (see example 1.2 and 1.3).

[1] = ACM37 and pyrrolylthiazole analogues, 200µM or 500µM, Figure 4
[2] = biphenyl analogues, 80µM or 200µM, Figure 5

T1 sequence (Q99ZW2 whole entry, one chain of several): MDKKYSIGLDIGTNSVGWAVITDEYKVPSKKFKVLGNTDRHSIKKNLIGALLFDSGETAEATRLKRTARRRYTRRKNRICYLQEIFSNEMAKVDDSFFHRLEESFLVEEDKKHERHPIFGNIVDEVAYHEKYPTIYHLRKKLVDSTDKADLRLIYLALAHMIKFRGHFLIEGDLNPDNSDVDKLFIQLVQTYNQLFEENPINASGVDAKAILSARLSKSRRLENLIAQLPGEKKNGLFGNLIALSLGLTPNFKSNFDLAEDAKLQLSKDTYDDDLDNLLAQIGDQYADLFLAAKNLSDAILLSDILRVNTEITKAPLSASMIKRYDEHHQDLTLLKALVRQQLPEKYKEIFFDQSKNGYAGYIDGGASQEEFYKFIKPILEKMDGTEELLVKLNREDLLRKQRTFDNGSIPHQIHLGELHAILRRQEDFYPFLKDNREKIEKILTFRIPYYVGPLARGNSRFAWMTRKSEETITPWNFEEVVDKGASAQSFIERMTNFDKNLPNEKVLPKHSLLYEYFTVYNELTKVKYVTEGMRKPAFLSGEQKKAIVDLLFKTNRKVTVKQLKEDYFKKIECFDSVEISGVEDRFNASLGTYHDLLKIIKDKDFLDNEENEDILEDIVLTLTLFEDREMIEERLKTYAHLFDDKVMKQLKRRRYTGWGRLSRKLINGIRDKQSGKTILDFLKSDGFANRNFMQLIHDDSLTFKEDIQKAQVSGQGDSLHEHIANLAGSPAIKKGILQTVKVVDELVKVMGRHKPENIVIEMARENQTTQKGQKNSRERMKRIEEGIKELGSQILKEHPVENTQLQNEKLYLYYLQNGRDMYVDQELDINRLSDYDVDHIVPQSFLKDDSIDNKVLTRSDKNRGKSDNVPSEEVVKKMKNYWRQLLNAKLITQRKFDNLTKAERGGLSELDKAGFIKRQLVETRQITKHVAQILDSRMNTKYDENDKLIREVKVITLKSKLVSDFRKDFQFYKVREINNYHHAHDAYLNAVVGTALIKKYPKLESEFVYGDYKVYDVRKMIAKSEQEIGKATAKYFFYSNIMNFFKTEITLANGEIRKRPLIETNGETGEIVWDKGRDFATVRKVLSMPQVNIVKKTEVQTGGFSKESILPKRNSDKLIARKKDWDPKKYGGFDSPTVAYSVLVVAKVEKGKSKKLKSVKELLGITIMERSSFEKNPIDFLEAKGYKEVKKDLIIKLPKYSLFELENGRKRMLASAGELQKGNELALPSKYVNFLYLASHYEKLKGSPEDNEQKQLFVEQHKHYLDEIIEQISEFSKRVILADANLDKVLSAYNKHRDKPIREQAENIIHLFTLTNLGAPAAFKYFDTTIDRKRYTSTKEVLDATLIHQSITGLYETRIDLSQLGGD

Row | SMILES | inhibitors of spCas9:gRNA mediated target DNA cleavage [1] | inhibitors of spCas9:gRNA mediated target DNA cleavage [2] | also measured
1 | Cc1cc(NS(=O)(=O)c2cc(-c3nc(C)c(C(=O)N4CCC(C)CC4)s3)n(C)c2C)no1 [ACM37, 1,2-Dimethyl-5-(4-methyl-5-(4-methylpiperidine-1-carbonyl)thiazol-2-yl)-N-(5-methylisoxazol-3-yl)-1H-pyrrole-3-sulfonamide] | most potent inhibitors |  | inhibitor of cleavage of a target DNA molecule by the spCas9:gRNA complex (re-screen of the 52 candidate compounds, 50∼500µM, Figure 3): most potent and specific inhibitor
2 | Cc1cc(NS(=O)(=O)c2cc(-c3nc(C)c(C(=O)N4CCCCCC4)s3)n(C)c2C)no1 [ACM37-A10, 5-(5-(Azepane-1-carbonyl)-4-methylthiazol-2-yl)-1,2-dimethyl-N-(5-methylisoxazol-3-yl)-1H-pyrrole-3-sulfonamide] | most potent inhibitors |  | 
3 | Cc1cc(NS(=O)(=O)c2cc(-c3nc(C)c(C(=O)N4CCC(C)CC4)s3)n(C)c2)no1 [ACM37-A13] | most potent inhibitors |  | 
4 | Cc1cc(NS(=O)(=O)c2ccc(-c3cccc(C(=O)N4CCC(C)CC4)c3)cc2)no1 [ACM37-A17, N-(5-Methylisoxazol-3-yl)-3'-(4-methylpiperidine-1-carbonyl)-[1,1'-biphenyl]-4-sulfonamide] |  | inhibitors | 
5 | CC1CCN(C(=O)c2cccc(-c3ccc(S(=O)(=O)Nc4ccon4)cc3)c2)CC1 [ACM37-A17a, N-(Isoxazol-3-yl)-3'-(4-methylpiperidine-1-carbonyl)-[1,1'-biphenyl]-4-sulfonamide] |  | inhibitors | 
6 | CC1CCN(C(=O)c2cccc(-c3ccccc3)c2)CC1 [ACM37-A17c, [1,1'-Biphenyl]-3-yl(4-methylpiperidin-1-yl)methanone] |  | inhibitors | relative potency as inhibitor of spCas9:gRNA mediated target DNA cleavage (Figure 5, printed order: ACM37-A17c, then ACM37-A17, ACM37-A17p, ACM37-A17a, ACM37-A17n, ACM37-A17f): most potent
7 | Cc1cc(NS(=O)(=O)c2ccc(-c3ccccc3)cc2)no1 [ACM37-A17f, N-(5-Methylisoxazol-3-yl)-[1,1'-biphenyl]-4-sulfonamide] |  | inhibitors | 
8 | O=S(=O)(Nc1ccon1)c1ccc(-c2ccccc2)cc1 [ACM37-A17n, N-(Isoxazol-3-yl)-[1,1'-biphenyl]-4-sulfonamide] |  | inhibitors | 
9 | Cc1cc(NS(=O)(=O)c2cccc(-c3ccccc3)c2)no1 [ACM37-A17p, N-(5-Methylisoxazol-3-yl)-[1,1'-biphenyl]-3-sulfonamide] |  | inhibitors | 
10 | Cc1cc(NS(=O)(=O)c2cc(-c3nc(C)c(C(=O)N4CCCCC4)s3)n(C)c2C)no1 [ACM37-A19, 1,2-Dimethyl-5-(4-methyl-5-(piperidine-1-carbonyl)thiazol-2-yl)-N-(5-methylisoxazol-3-yl)-1H-pyrrole-3-sulfonamide] | most potent inhibitors |  | 
11 | Cc1nc(-c2cc(S(=O)(=O)Nc3ccon3)cn2C)sc1C(=O)N1CCC(C)CC1 [ACM37-A23a, N-(isoxazol-3-yl)-1-methyl-5-(4-methyl-5-(4-methylpiperidine-1-carbonyl)thiazol-2-yl)-1H-pyrrole-3-sulfonamide] | most potent inhibitors |  | 
